Test results as given in publication PMC12123601, “Light-Induced, Lysine-Targeting Irreversible Covalent Inhibition of the Human Oxygen Sensing Hydroxylase Factor Inhibiting HIF (FIH)” (Journal of the American Chemical Society, 2025).
Like-named read-outs stand apart in the source and are kept apart here.

Legend:
[1] = target: T1, FIH^K106A (Homo sapiens, UniProt Q9NWT6, K106A); test: Affinity-based fluorescence polarization (FP) assay with the FIH K106A variant, without and with irradiation; format: binding; conditions: read-out: Binding affinity to FIH^K106A: Ki
T1 construct: encoding for full-length FIH with an N-terminal His6 tag or for FIH (K106A) with an N-terminal His6 tag; His6 (N); host or cells: Escherichia coli BL21
Description: (§1) 4 (A) Light-induced click conjugation between NBA-ZG-2291 and FIH protein. (B) Light-induced binding affinity of NBA-ZG-2291 to FIH^ WT . (C) Light-induced binding affinity of NBA-ZG-2291 to FIH^ K106A . […] TEXT PRINTED IN THE PICTURE: (B) NBA-ZG-2291: Binding affinity to FIH^WT: Ki (nM): 414 ± 14 (Irradtion time (min): 0); Binding affinity to FIH^WT: Ki (nM): 74.1 ± 1.6 (Irradtion time (min): 15); Binding affinity to FIH^WT: Ki (nM): 46.7 ± 1.4 (Irradtion time (min): 30); Binding affinity to FIH^WT: Ki (nM): 33.2 ± 0.6 (Irradtion time (min): 60); Binding affinity to FIH^WT: Ki (nM): 30.2 ± 2.0 (Irradtion time (min): 90); Binding affinity to FIH^WT: Ki (nM): 32.1 ± 0.7 (Irradtion time (min): 120) | (B) Neg-1: Binding affinity to FIH^WT: Ki (nM): 423 ± 7 (Irradtion time (min): 0); Binding affinity to FIH^WT: Ki (nM): 408 ± 30 (Irradtion time (min): 15); Binding affinity to FIH^WT: Ki (nM): 459 ± 32 (Irradtion time (min): 30); Binding affinity to FIH^WT: Ki (nM): 427 ± 17 (Irradtion time (min): 60); Binding affinity to FIH^WT: Ki (nM): 396 ± 29 (Irradtion time (min): 90); Binding affinity to FIH^WT: Ki (nM): 428 ± 15 (Irradtion time (min): 120) | (B) Neg-2: Binding affinity to FIH^WT: Ki (nM): 742 ± 65 (Irradtion time (min): 0); Binding affinity to FIH^WT: Ki (nM): 799 ± 69 (Irradtion time (min): 15); Binding affinity to FIH^WT: Ki (nM): 758 ± 13 (Irradtion time (min): 30); Binding affinity to FIH^WT: Ki (nM): 744 ± 30 (Irradtion time (min): 60); Binding affinity to FIH^WT: Ki (nM): 788 ± 36 (Irradtion time (min): 90); Binding affinity to FIH^WT: Ki (nM): 786 ± 35 (Irradtion time (min): 120) | (C) NBA-ZG-2291: Binding affinity to FIH^K106A: Ki (nM): 442 ± 12 (Irradtion time (min): 0); Binding affinity to FIH^K106A: Ki (nM): 427 ± 22 (Irradtion time (min): 15); Binding affinity to FIH^K106A: Ki (nM): 426 ± 7 (Irradtion time (min): 30); Binding affinity to FIH^K106A: Ki (nM): 420 ± 11 (Irradtion time (min): 60); Binding affinity to FIH^K106A: Ki (nM): 418 ± 5 (Irradtion time (min): 90); Binding affinity to FIH^K106A: Ki (nM): 424 ± 12 (Irradtion time (min): 120) | (C) Neg-1: Binding affinity to FIH^K106A: Ki (nM): 271 ± 14 (Irradtion time (min): 0); Binding affinity to FIH^K106A: Ki (nM): 275 ± 15 (Irradtion time (min): 15); Binding affinity to FIH^K106A: Ki (nM): 268 ± 25 (Irradtion time (min): 30); Binding affinity to FIH^K106A: Ki (nM): 266 ± 22 (Irradtion time (min): 60); Binding affinity to FIH^K106A: Ki (nM): 264 ± 41 (Irradtion time (min): 90); Binding affinity to FIH^K106A: Ki (nM): 270 ± 3 (Irradtion time (min): 120) | (C) Neg-2: Binding affinity to FIH^K106A: Ki (nM): 567 ± 37 (Irradtion time (min): 0); Binding affinity to FIH^K106A: Ki (nM): 548 ± 61 (Irradtion time (min): 15); Binding affinity to FIH^K106A: Ki (nM): 521 ± 50 (Irradtion time (min): 30); Binding affinity to FIH^K106A: Ki (nM): 627 ± 17 (Irradtion time (min): 60); Binding affinity to FIH^K106A: Ki (nM): 565 ± 10 (Irradtion time (min): 90); Binding affinity to FIH^K106A: Ki (nM): 552 ± 38 (Irradtion time (min): 120) […]
To further verify the covalent binding between NBA-ZG-2291 and Lys106, the FIH^ K106A variant was produced and purified.
(§2) 3. Experimental procedures
(§3) 3.1 Fluorescence polarization (FP) assays1 with FIHWT and FIHK106A pET28a vectors encoding for full-length FIH with an N-terminal His6 tag or for FIH (K106A) with an N-terminal His6 tag were purchased from Nanjing Zoonbio Biotechnology. Both the FIHWT and FIHK106A protein were expressed from the respective plasmid in Escherichia coli BL21 at 20 °C for 16 h. E. coli cells were lysed and the lysate were clarified by centrifugation. His6-tagged FIHWT or FIHK106A was purified on a HisTrap affinity column (GE Healthcare) by elution with an imidazole gradient. The final purified proteins were stored in PBS buffer.
FP assays were carried out using 384 -well plates (#3575, Corning); the polarization signal was measured using a SPARK Multi-Mode Microplate Reader (Tecan). […]

[2] = target: T2, FIH^WT (Homo sapiens, UniProt Q9NWT6); test: Affinity-based fluorescence polarization (FP) assay with FIH WT, without and with 365 nm irradiation; conditions: read-out: Binding affinity to FIH^WT: Ki
T2 construct: pET28a vectors encoding for full-length FIH with an N-terminal His6 tag; His6 (N); host or cells: Escherichia coli BL21
Description: We also performed a reported affinity-based fluorescence polarization (FP) assay (Figure S6) , under light activation to measure the binding affinity of NBA-ZG-2291 to FIH (Figure A). […] These observations are consistent with the intact protein MS analyzes. We also evaluated the binding affinities of two negative controls to FIH, which were designed not to covalently react with Lys106.
as §1, §2
as §3, with “His6- […]” for “His6-tagged FIHWT or FIHK106A was purified on a HisTrap affinity column (GE Healthcare) by elution with an imidazole gradient. The final purified proteins were stored in PBS buffer.”

T2 sequence (Q9NWT6 whole entry): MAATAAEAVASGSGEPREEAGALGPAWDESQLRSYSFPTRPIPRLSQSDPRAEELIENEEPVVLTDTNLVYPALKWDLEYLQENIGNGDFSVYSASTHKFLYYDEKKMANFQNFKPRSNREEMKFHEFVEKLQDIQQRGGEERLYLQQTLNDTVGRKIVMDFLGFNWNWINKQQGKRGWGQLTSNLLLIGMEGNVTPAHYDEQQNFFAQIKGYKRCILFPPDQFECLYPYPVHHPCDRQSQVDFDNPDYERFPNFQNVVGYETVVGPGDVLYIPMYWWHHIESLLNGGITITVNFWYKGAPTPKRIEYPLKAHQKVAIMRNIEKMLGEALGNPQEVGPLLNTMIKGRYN
T1 sequence (Q9NWT6 whole entry K106A): as the sequence (Q9NWT6 whole entry) above, with K106A counted along it

SMILES | Ki ([1]; irradiation time 0 min) | Ki ([1]; irradiation time 15 min) | Ki ([1]; irradiation time 30 min) | Ki ([1]; irradiation time 60 min) | Ki ([1]; irradiation time 90 min) | Ki ([1]; irradiation time 120 min) | Ki ([2]; irradiation time 0 min) | Ki ([2]; irradiation time 15 min) | Ki ([2]; irradiation time 30 min) | Ki ([2]; irradiation time 60 min) | Ki ([2]; irradiation time 90 min) | Ki ([2]; irradiation time 120 min)
O=C(O)CNC(=O)c1ncc(-c2cc(-c3cccc([N+](=O)[O-])c3)no2)cc1O [Neg-1] | 271 ± 14 nM | 275 ± 15 nM | 268 ± 25 nM | 266 ± 22 nM | 264 ± 41 nM | 270 ± 3 nM | 423 ± 7 nM | 408 ± 30 nM | 459 ± 32 nM | 427 ± 17 nM | 396 ± 29 nM | 428 ± 15 nM
O=C(O)CNC(=O)c1ncc(-c2cc(-c3ccc(CO)cc3)no2)cc1O [Neg-2] | 567 ± 37 nM | 548 ± 61 nM | 521 ± 50 nM | 627 ± 17 nM | 565 ± 10 nM | 552 ± 38 nM | 742 ± 65 nM | 799 ± 69 nM | 758 ± 13 nM | 744 ± 30 nM | 788 ± 36 nM | 786 ± 35 nM
